Measurements as given in paper PMC5963640 (Journal of Ocular Pharmacology and Therapeutics, 2018).

What was measured:
[1] = Ocular metabolism: levels in aqueous humor after topical ocular dosing; type: in vivo, New Zealand rabbits
Procedure: In groups 1 and 2, the test article was dosed only once, and 100 μL samples of AH were taken from each eye by paracentesis at 4 or 6 h postdose, respectively. In groups 3 and 4, the test article was dosed once daily for 3 or 4 days, respectively, and 100 μL samples of AH were taken 4 h after dosing.

live monkeys = system: live monkeys; design: method as in PMID 25535688; conditions: 6 h after topical dosing, 0.04%; cited from earlier work
[2] = In vitro corneal metabolism, dog; type: in vitro ADME, beagle dogs; conditions: beagle, corneal tissue punches, 37°C, pH 6.5, read-out: t1/2 of corneal metabolism
Procedure: (§1) Enucleated pig eyes (n = 3) were harvested at a local abattoir, stored on ice, and used within 4 h of slaughter. For eyes harvested from beagle dogs (n = 3; Calvert Laboratories, Pittston, PA), Dutch Belted rabbits (n = 3; Robinson Services, Mockesville, NC), and cynomolgus monkeys (n = 4; Covance, Madison, WI), intact globes were stored in K-Sol corneal preservation buffer[31] under cold conditions and used within 24 h of sacrifice. Human corneas (n = 3) were acquired from The Eye Bank for Sight Restoration (New York, NY). The weights of the corneal punches were approximately the same for the dog, pig, human, and rabbit, whereas monkey corneal punches were approximately half of the weight of the others. Corneal punches were stored in phosphate-buffered saline and used within 1 h of preparation.
(§2) Samples were incubated at 37°C and reactions were subsequently terminated at appropriate time intervals by transferring a 100 μL aliquot of solution to an equal volume of cold acetonitrile followed by thorough trituration. The samples were centrifuged at 10,000 g for 10 min and the supernatants analyzed by high performance liquid chromatography (HPLC) using a Waters Alliance 2695 HPLC (Milford, MA) equipped with a Symmetry C18 4.6 × 75 mm 3.5 μm column.

primary HTM cells = assay: TGF-β2-induced expression of fibrogenic markers, immunofluorescence; type: cell-based, human; conditions: 500 nM netarsudil plus 8 ng/mL TGF-β2, 24 h
Procedure: Cells were grown on gelatin (2%)-coated coverslips until they were semi-confluent. […] The cells were then assessed for induction of the fibrogenic markers α-smooth muscle actin (α-SMA), Collagen I, and fibroblast-specific protein 1 (FSP1) using immunofluorescence staining as previously described.[29] Mouse monoclonal antibody against α-SMA was purchased from Sigma-Aldrich, rabbit anti-FSP1 antibody from EMD Millipore (Billerica, MA), and rabbit anti-Collagen I antibody from Abcam (Cambridge, MA).

[3] = In vitro corneal metabolism, rabbit; type: in vitro ADME, Dutch Belted rabbits; conditions: Dutch Belted, corneal tissue punches, 37°C, pH 6.5, read-out: t1/2 of corneal metabolism
Procedure: as §1, §2

Dutch Belted rabbits = assay: Ocular tolerability (modified Draize, hyperemia score) in rabbits; conditions: 0.005%, 0.01%, 0.02% and 0.04% solutions
[4] = target: T1, protein kinase C-theta (PKC-theta) (Homo sapiens, UniProt Q04759); assay: Kinase-Glo luminescent protein kinase assay, PKC-theta; type: biochemical; conditions: average of ≥3 replicate experiments; read-out: PKCT Ki
T1 construct: purchased Invitrogen/Life Technologies

[5] = In vitro corneal metabolism, human; type: in vitro ADME; conditions: corneal tissue punches, 37°C, pH 6.5, read-out: t1/2 of corneal metabolism
Procedure: as §1, §2

[6] = system: primary porcine TM (PTM) cells; assay: Disruption of actin stress fibers, high-content screening; type: cell-based; conditions: Sus scrofa, 6 h, read-out: PTM IC50 (disruption of actin stress fibers)
[7] = Absorption and distribution of radioactivity after single topical ocular dose; type: in vivo, Dutch Belted rabbits; conditions: male, Dutch Belted, rabbit, in vivo
Procedure: A single topical ocular dose of 0.02% ^14C-netarsudil mesylate (35 μL drop) was administered to both eyes of 3 male Dutch Belted rabbits in each of 7 groups. At 0.25, 0.5, 1, 4, 8, 24, and 48 h postdose, the following samples were harvested from each group: whole blood, derived plasma, AH, vitreous humor, cornea, conjunctiva, lens, iris/ciliary body, retina-choroid-plexus, liver, and kidneys. All samples were assayed for total radioactivity. A study of the same design was conducted for AR-12286, using a single topical ocular dose of 0.5% ^3H-AR-12286 (35 μL drop).

[8] = system: transformed human TM (HTM) cells (TM-1); assay: Disruption of focal adhesions, high-content screening; type: cell-based; conditions: 6 h, read-out: HTM IC50 (disruption of focal adhesions)
Formosan Rock monkeys = assay: Ocular tolerability (modified Draize, hyperemia score) in monkeys; conditions: 0.01%, 0.02% and 0.04% solutions, once daily for 3 days
[9] = system: normotensive Dutch Belted rabbits; assay: Ocular hypotensive activity (IOP) in rabbits; conditions: for maximal IOP reduction: once daily, Day 3, at 4 or 8 h after dosing
[10] = In vitro corneal metabolism, pig; type: in vitro ADME; conditions: corneal tissue punches, 37°C, pH 6.5, read-out: t1/2 of corneal metabolism
Procedure: as §1, §2

[11] = target: norepinephrine transporter (NET) (Homo sapiens, UniProt P23975); assay: NET inhibitory activity (data not shown)
patients = system: patients; design: method as in PMID 25270273; conditions: 0.02% once daily in the evening, Day 7 and 28 morning visits; cited from earlier work
[12] = In vitro corneal metabolism, monkey; type: in vitro ADME, cynomolgus monkeys; conditions: corneal tissue punches, 37°C, pH 6.5, read-out: t1/2 of corneal metabolism
Procedure: as §1, §2

[13] = system: normotensive Formosan Rock monkeys; assay: Ocular hypotensive activity (IOP) in monkeys; conditions: for maximal IOP reduction: once daily, Day 3, at 4 or 8 h after dosing; for IOP reduction: Day 3
[14] = target: T2, calcium/calmodulin-dependent protein kinase II Alpha (CAMK2A) (Homo sapiens, UniProt Q9UQM7); assay: Kinase-Glo luminescent protein kinase assay, CAMK2A; type: biochemical; conditions: average of ≥3 replicate experiments; read-out: CAM2A Ki
T2 construct: purchased Invitrogen/Life Technologies
T2 sequence (Q9UQM7 whole entry): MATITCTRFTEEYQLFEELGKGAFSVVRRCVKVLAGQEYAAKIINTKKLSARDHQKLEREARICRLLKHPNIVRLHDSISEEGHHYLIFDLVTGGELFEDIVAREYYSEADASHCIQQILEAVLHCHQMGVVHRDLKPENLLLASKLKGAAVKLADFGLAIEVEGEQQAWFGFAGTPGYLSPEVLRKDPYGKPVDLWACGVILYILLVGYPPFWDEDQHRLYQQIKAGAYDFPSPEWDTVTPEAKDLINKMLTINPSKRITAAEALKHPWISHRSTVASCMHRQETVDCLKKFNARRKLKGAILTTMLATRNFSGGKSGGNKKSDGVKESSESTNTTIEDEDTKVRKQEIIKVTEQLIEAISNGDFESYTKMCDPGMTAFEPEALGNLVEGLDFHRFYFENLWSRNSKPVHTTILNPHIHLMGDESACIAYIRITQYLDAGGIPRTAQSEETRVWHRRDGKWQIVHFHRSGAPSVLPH

T1 sequence (Q04759 whole entry): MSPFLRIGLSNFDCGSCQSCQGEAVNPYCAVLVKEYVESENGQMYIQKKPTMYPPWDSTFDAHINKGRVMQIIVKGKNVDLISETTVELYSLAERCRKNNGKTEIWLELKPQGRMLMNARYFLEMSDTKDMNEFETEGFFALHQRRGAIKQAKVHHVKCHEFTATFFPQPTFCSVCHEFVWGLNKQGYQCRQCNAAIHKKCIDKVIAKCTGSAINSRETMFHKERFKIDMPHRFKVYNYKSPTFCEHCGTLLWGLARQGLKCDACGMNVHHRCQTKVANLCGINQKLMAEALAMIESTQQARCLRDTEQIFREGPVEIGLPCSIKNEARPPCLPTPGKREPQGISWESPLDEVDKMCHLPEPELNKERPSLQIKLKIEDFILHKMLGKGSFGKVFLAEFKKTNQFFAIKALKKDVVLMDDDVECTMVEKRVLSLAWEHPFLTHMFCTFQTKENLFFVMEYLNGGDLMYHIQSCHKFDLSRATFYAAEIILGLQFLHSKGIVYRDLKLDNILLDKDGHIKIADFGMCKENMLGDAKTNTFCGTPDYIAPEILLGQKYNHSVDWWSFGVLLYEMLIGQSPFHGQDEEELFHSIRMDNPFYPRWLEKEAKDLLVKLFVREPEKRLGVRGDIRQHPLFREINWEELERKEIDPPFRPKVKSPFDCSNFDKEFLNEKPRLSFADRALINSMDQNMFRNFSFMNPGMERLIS
Chain of norepinephrine transporter (NET) (P23975 whole entry, species assumed): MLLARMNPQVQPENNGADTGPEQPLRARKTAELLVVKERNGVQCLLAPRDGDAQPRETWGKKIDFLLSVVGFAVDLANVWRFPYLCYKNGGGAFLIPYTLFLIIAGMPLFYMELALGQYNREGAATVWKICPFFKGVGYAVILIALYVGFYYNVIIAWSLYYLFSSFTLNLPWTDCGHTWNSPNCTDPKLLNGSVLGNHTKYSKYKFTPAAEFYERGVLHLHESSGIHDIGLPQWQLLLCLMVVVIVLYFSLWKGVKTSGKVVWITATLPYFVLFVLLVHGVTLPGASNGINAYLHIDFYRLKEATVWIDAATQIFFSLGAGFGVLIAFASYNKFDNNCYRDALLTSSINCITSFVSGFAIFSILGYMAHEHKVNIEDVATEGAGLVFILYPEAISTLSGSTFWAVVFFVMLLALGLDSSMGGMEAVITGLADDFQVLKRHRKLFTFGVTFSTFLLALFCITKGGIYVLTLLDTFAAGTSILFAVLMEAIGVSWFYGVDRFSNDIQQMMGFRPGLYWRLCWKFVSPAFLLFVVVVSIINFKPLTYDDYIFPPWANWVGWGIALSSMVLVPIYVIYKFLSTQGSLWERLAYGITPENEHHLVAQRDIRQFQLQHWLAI

## Cc1ccc(C(=O)OCc2ccc([C@@H](CN)C(=O)Nc3ccc4cnccc4c3)cc2)c(C)c1 [Netarsudil]
[1]; after topical netarsudil 0.02%, below the limit of detection in all but 1 of the 24 samples
  concentration in AH: < 0.1 ng/mL
[1]; male, New Zealand, rabbit, aqueous humor, topical, 0.02 %, read-out: concentration in AH, single sample above limit of detection
  concentration at 4 h: 1.82 ng/mL
Live monkeys
  increase in tonographic outflow facility: 53%
[2]
  half-life at 200 µM: 1.63 h
Primary HTM cells
  induction of fibrogenic markers α-SMA, FSP1 and Collagen I by TGF-β2: abolished the induction of these markers by TGF-β2
[3]
  half-life at 200 µM: 2.33 h
Dutch Belted rabbits
  persistence of hyperemia after dosing: 4 to 8 h
Dutch Belted rabbits; once daily for 3 days
  hyperemia (scored 0 to 3, none to severe): trace (+0.5) to mild hyperemia (+1)
[4]
  Ki: 92 nM
[5]
  half-life at 200 µM: 2.92 h
[6]
  IC50: 79 nM
[7]
  AH half-life of related radioactivity, longer than that for AR-12286: ~60%
[7]; topical or ocular
  Tmax in AH: 8 h
  terminal elimination half-life (T1/2,e) in AH: 16 to 17 h
[8]
  IC50: 16 nM
Formosan Rock monkeys
  adverse effect noted (hyperemia): trace to mild hyperemia was the only adverse effect noted
[9]; 0.005% solution
  maximal IOP reduction: 2.5 ± 0.2 mmHg
[9]; 0.01% solution
  maximal IOP reduction: 4.6 ± 0.2 mmHg
[9]; 0.02% solution
  maximal IOP reduction: 5.0 ± 0.6 mmHg
[9]; 0.04% solution
  maximal IOP reduction: 8.1 ± 0.7 mmHg
[9]; 0.04%, 8 h after dosing on Day 3
  IOP reduction: 8.1 ± 0.7 mmHg
[9]; Day 1
  time of peak IOP-lowering efficacy after dosing: 8 h
[9]; rabbits
  time IOP reductions were sustained after once daily dosing: at least 24 h
[10]
  half-life at 200 µM: 2.6 h
[11]
  NET inhibitory activity: possesses NET inhibitory activity
patients
  patients scored as having no hyperemia or trace hyperemia: 65% to 76
[12]
  half-life at 200 µM: 1.82 h
[13]; 0.01% solution
  maximal IOP reduction: 4.2 ± 0.2 mmHg
[13]; 0.02% solution
  maximal IOP reduction: 5.8 ± 0.3 mmHg
[13]; 0.04%
  time for which full IOP-lowering effect was maintained after dosing: 24 h
[13]; 0.04% solution
  maximal IOP reduction: 7.5 ± 1.1 mmHg
[13]; 0.04%, 4 h after dosing
  IOP reduction: 7.5 ± 0.7 mmHg
[13]; 0.04%, 24 h after dosing
  IOP reduction: 7.5 ± 1.1 mmHg
[13]; monkeys
  time IOP reductions were sustained after once daily dosing: at least 24 h
[14]
  Ki: 5310 nM
